Measurements: patent publication EP0221541A2, “Quinolonecarboxylic acid derivatives and their preparation” (KYORIN PHARMACEUTICAL CO., LTD., priority 1985, dated 1987)
Converted amounts (≈) assume the structure as drawn. Where a name gives a salt, the structure may show the parent alone.

Legend:
Type in all cases: cell-based
[1] = test system: Bacillus subtilis PCI 219; assay: MIC, antibacterial spectrum (aerobic bacteria); settings: PCI219; Bacillus subtilis PCI 219, Gram +, 10^6 cells/ml, aerobic; read-out: MIC
S. aureus Smith = assay: MIC, antibacterial spectrum (aerobic bacteria); settings: Staphylococcus aureus; S. aureus Smith, Gram +, 10^6 cells/ml, aerobic; read-out: MIC
[2] = test system: Klebsiella pneumoniae KY(GN)6445; assay: MIC, antibacterial spectrum (aerobic bacteria); settings: Klebsiella pneumoniae KY(GN)6445, Gram -, 10^6 cells/ml, aerobic; read-out: MIC
K. pneumoniae 1-220S = assay: MIC, antibacterial spectrum (aerobic bacteria); settings: Klebsiella pneumoniae, 1220S; K. pneumoniae 1-220S, Gram -, 10^6 cells/ml, aerobic; read-out: MIC
[3] = test system: Salmonella enteritidis IID 604; assay: MIC, antibacterial spectrum (aerobic bacteria); settings: Salmonella enterica; Salmonella enteritidis IID 604, Gram -, 10^6 cells/ml, aerobic; read-out: MIC
Shigella sonnei IID 969 = assay: MIC, antibacterial spectrum (aerobic bacteria); settings: IID969, Shigella sonnei IID 969, Gram -, 10^6 cells/ml
Method: Minimal inhibitory concentrations (MICs) were determined in accordance with the method recommended by Japan Society of Chemotherapy.

P. aeruginosa IFO 12689 = assay: MIC, antibacterial spectrum (aerobic bacteria); settings: Pseudomonas aeruginosa, IFO12689; P. aeruginosa IFO 12689, Gram -, 10^6 cells/ml, aerobic; read-out: MIC
P. aeruginosa IID 1210 = assay: MIC, antibacterial spectrum (aerobic bacteria); settings: Pseudomonas aeruginosa, IID1210; P. aeruginosa IID 1210, Gram -, 10^6 cells/ml, aerobic; read-out: MIC
P. cepacia KY 84 = assay: MIC, antibacterial spectrum (aerobic bacteria); settings: Burkholderia cepacia, KY84, P. cepacia KY 84, Gram -, 10^6 cells/ml
[4] = test system: Acinetobacter anitratus IID 876; assay: MIC, antibacterial spectrum (aerobic bacteria); settings: Acinetobacter calcoaceticus, IID876; Acinetobacter anitratus IID 876, Gram -, 10^6 cells/ml, aerobic; read-out: MIC
[5] = test system: Alcaligenes faecalis 0114002; assay: MIC, antibacterial spectrum (aerobic bacteria); settings: Alcaligenes faecalis 0114002, Gram -, 10^6 cells/ml
[6] = test system: Bacteroides fragilis GM 7000; assay: MIC, antibacterial spectrum (anaerobic bacteria); settings: GM7000; Bacteroides fragilis GM 7000, Gram -, 10^6 cells/ml, anaerobic; read-out: MIC
B. fragilis 0558 = assay: MIC, antibacterial spectrum (anaerobic bacteria); settings: Bacteroides fragilis; B. fragilis 0558, Gram -, 10^6 cells/ml, anaerobic; read-out: MIC
[7] = test system: B. thetaiotaomicron (0661); assay: MIC, antibacterial spectrum (anaerobic bacteria); settings: Bacteroides thetaiotaomicron; B. thetaiotaomicron (0661), Gram -, 10^6 cells/ml, anaerobic; read-out: MIC
[8] = test system: Fusobacterium necrophorum S-45; assay: MIC, antibacterial spectrum (anaerobic bacteria); settings: S45; Fusobacterium necrophorum S-45, Gram -, 10^6 cells/ml, anaerobic; read-out: MIC
[9] = test system: Propionibacterium acens 11828; assay: MIC, antibacterial spectrum (anaerobic bacteria); settings: Propionibacterium acens 11828, Gram +, 10^6 cells/ml, anaerobic; read-out: MIC
P. cepacia GIFU 518 = assay: MIC, antibacterial spectrum (aerobic bacteria); settings: Burkholderia cepacia, GIFU518; P. cepacia GIFU 518, Gram -, 10^6 cells/ml, aerobic; read-out: MIC
P. maltophilia GIFU 2491 = assay: MIC, antibacterial spectrum (aerobic bacteria); settings: Stenotrophomonas maltophilia, GIFU2491; P. maltophilia GIFU 2491, Gram -, 10^6 cells/ml, aerobic; read-out: MIC
B. distasonis 8503 = assay: MIC, antibacterial spectrum (anaerobic bacteria); settings: Parabacteroides distasonis; B. distasonis 8503, Gram -, 10^6 cells/ml, anaerobic; read-out: MIC

In the case of `O=C(O)c1cn(C2CC2)c2c(F)c(N3CCC(CNCCO)C3)c(F)cc2c1=O` (stereo not shown) [Exp. 1, 1-Cyclopropyl-6,8-difluoro-1,4-dihydro-7-[3-(2-hydroxyethylaminomethyl)-1-pyrrolidinyl]-4-oxo-3-quinolinecarboxylic acid], the MIC [1] is reported as 0.0125 µg/mL (≈ 0.0307 µM), the MIC (S. aureus Smith) is reported as 0.05 µg/mL (≈ 0.123 µM) and the MIC [2] is reported as 0.05 µg/mL (≈ 0.123 µM). For the same compound, the MIC (K. pneumoniae 1-220S) was 0.2 µg/mL (≈ 0.491 µM), the MIC [3] was 0.1 µg/mL (≈ 0.245 µM) and the MIC (Shigella sonnei IID 969) was 0.05 µg/mL (≈ 0.123 µM). For the same compound, the MIC (P. aeruginosa IFO 12689) was 1.56 µg/mL (≈ 3.83 µM), the MIC (P. aeruginosa IID 1210) was 1.56 µg/mL (≈ 3.83 µM) and the MIC (P. cepacia KY 84) was 3.13 µg/mL (≈ 7.68 µM). For the same compound, the MIC [4] was 0.2 µg/mL (≈ 0.491 µM), the MIC [5] was 0.78 µg/mL (≈ 1.91 µM) and the MIC [6] was 1.56 µg/mL (≈ 3.83 µM). It also gave an MIC (B. fragilis 0558) of 0.78 µg/mL (≈ 1.91 µM), an MIC [7] of 3.13 µg/mL (≈ 7.68 µM) and an MIC [8] of 0.2 µg/mL (≈ 0.491 µM). It also gave an MIC [9] of 0.78 µg/mL (≈ 1.91 µM).

`O=C(O)c1cn(C2CC2)c2c(Cl)c(N3CCC(CNCCO)C3)c(F)cc2c1=O` (stereo not shown) [Exp. 3, 8-Chloro-1-cyclopropyl-6-fluoro-1,4-dihydro-7-(3-(2-hydroxyethylaminomethyl)-1-pyrrolidinyl]-4-oxo-3-quinolinecarboxylic acid] gave an MIC [1] of 0.0125 µg/mL (≈ 0.0295 µM), an MIC (S. aureus Smith) of 0.0125 µg/mL (≈ 0.0295 µM) and an MIC [2] of 0.05 µg/mL (≈ 0.118 µM). It also gave an MIC (K. pneumoniae 1-220S) of 0.1 µg/mL (≈ 0.236 µM), an MIC [3] of 0.1 µg/mL (≈ 0.236 µM) and an MIC (Shigella sonnei IID 969) of 0.05 µg/mL (≈ 0.118 µM). For the same compound, the MIC (P. aeruginosa IFO 12689) was 1.56 µg/mL (≈ 3.68 µM), the MIC (P. aeruginosa IID 1210) was 1.56 µg/mL (≈ 3.68 µM) and the MIC (P. cepacia GIFU 518) was 1.56 µg/mL (≈ 3.68 µM). It also gave an MIC (P. maltophilia GIFU 2491) of 0.2 µg/mL (≈ 0.472 µM), an MIC [4] of 0.1 µg/mL (≈ 0.236 µM) and an MIC [5] of 0.39 µg/mL (≈ 0.92 µM). For the same compound, the MIC [6] was 0.39 µg/mL (≈ 0.92 µM), the MIC (B. fragilis 0558) was 0.2 µg/mL (≈ 0.472 µM) and the MIC (B. distasonis 8503) was 0.78 µg/mL (≈ 1.84 µM). It also gave an MIC [7] of 1.56 µg/mL (≈ 3.68 µM), an MIC [8] of 0.1 µg/mL (≈ 0.236 µM) and an MIC [9] of 0.78 µg/mL (≈ 1.84 µM).

In the case of `O=C(O)c1cn(C2CC2)c2cc(N3CCC(CNCCO)C3)c(F)cc2c1=O` (stereo not drawn) [Exp. 2, l-Cyclopropyl-6-fluoro-l,4-dihydro-7-[3-(2-hydroxyethylaminomethyl)-l-pyrrolidinyl]-4-oxo-3-quinolinecarboxylic acid hydrochloride], the MIC [1] is reported as no more than 0.05 µg/mL, the MIC (S. aureus Smith) is reported as 0.39 µg/mL and the MIC [2] is reported as 0.39 µg/mL. The MIC (K. pneumoniae 1-220S) was 0.78 µg/mL, the MIC [3] was 0.39 µg/mL and the MIC (Shigella sonnei IID 969) was 0.1 µg/mL. The MIC (P. aeruginosa IFO 12689) was 6.25 µg/mL, the MIC (P. aeruginosa IID 1210) was 6.25 µg/mL and the MIC [4] was 3.13 µg/mL. It also gave an MIC [5] of 6.25 µg/mL, an MIC [6] of 100 µg/mL and an MIC (B. fragilis 0558) of 50 µg/mL. The MIC [7] was greater than 100 µg/mL, the MIC [8] was 0.78 µg/mL and the MIC [9] was 3.13 µg/mL.
